Our source for the Activity values is ChEMBL document CHEMBL5329181, “Green synthesis and anti-biofilm activities of 3,5-disubstituted isoxazoline/isoxazole-linked secondary sulfonamide derivatives on Pseudomonas aeruginosa” (2023).

Test [1] relates to Pseudomonas aeruginosa. Description: Destabilization of mature biofilms in Pseudomonas aeruginosa assessed as biofilm dispersion at 200 uM incubated for 24 hrs by crystal violet staining based assay relative to control. In kind it is functional.
In test [2] the test system is Pseudomonas aeruginosa. Description: Antibacterial activity against Pseudomonas aeruginosa H103 assessed as reduction in bacterial growth at 200 uM measured every 15 min for 24 hrs by optical density based analysis. In kind it is functional, organism-based.
In test [3] the test system is Pseudomonas aeruginosa. Description: Antibiofilm activity against Pseudomonas aeruginosa assessed as inhibition of biofilm formation at 200 uM incubated for 24 hrs by crystal violet staining based assay. In kind it is functional, organism-based.

Activity calls are given as the source filed them. No cut-off for these calls is given here.

`C=CCNS(=O)(=O)c1ccccc1C(=O)NN`: the Activity with Pseudomonas aeruginosa [1] came out at 30%. In addition, the outcome in the test on Pseudomonas aeruginosa [2] and in the test on Pseudomonas aeruginosa [3] was inactive.
For `COc1ccc(C2=NOC(CNS(=O)(=O)c3ccccc3C(=O)NN)C2)cc1` (stereo not drawn), the Activity with Pseudomonas aeruginosa [1] came to 50%. Also, the outcome in the test on Pseudomonas aeruginosa [2] and in the test with Pseudomonas aeruginosa [3] was inactive.
For `C#CCNS(=O)(=O)c1ccccc1C(=O)NN`, the outcome with Pseudomonas aeruginosa [2] and in the test with Pseudomonas aeruginosa [3] was inactive.
For `NNC(=O)c1ccccc1S(=O)(=O)NCC1CC(c2ccc(Cl)c(Cl)c2)=NO1` (stereo not drawn), the result with Pseudomonas aeruginosa [2] and with Pseudomonas aeruginosa [3] was inactive.
As to `NNC(=O)c1ccccc1S(=O)(=O)NCC1CC(c2cccc([N+](=O)[O-])c2)=NO1` (stereo not drawn), the result in the test on Pseudomonas aeruginosa [2] and in the test on Pseudomonas aeruginosa [3] was inactive.
Turning to `CN[C@@H]1[C@@H](O[C@H]2O[C@H](CO)[C@@H](N)[C@H](O)[C@H]2O)O[C@H]2C[C@@H](N)[C@@H](O[C@H]3[C@H](O)[C@@H](O)[C@H](N)C[C@@H]3N)O[C@@H]2[C@@H]1O`, the Activity in the test with Pseudomonas aeruginosa [1] is 50%.
Take `NNC(=O)c1ccccc1S(=O)(=O)NCC1CC(c2ccccc2)=NO1` (stereo not drawn): the outcome in the test with Pseudomonas aeruginosa [2] and in the test with Pseudomonas aeruginosa [3] was inactive.
Turning to `NNC(=O)c1ccccc1S(=O)(=O)NCC1CC(c2ccc(Br)cc2)=NO1` (stereo not drawn), the outcome in the test on Pseudomonas aeruginosa [2] and in the test on Pseudomonas aeruginosa [3] was inactive.
Consider `NNC(=O)c1ccccc1S(=O)(=O)NCc1cc(-c2ccc(Cl)cc2Cl)no1`, for which the Activity in the test on Pseudomonas aeruginosa [1] is given as 50%. For the same molecule, the result with Pseudomonas aeruginosa [2] and with Pseudomonas aeruginosa [3] was inactive.
`NNC(=O)c1ccccc1S(=O)(=O)NCC1CC(c2ccccc2Cl)=NO1` (stereo not drawn): the result in the test with Pseudomonas aeruginosa [1], with Pseudomonas aeruginosa [2] and with Pseudomonas aeruginosa [3] was inactive.
Turning to `Cc1ccc(C2=NOC(CNS(=O)(=O)c3ccccc3C(=O)NN)C2)cc1` (stereo not drawn), the outcome with Pseudomonas aeruginosa [2] and with Pseudomonas aeruginosa [3] was inactive.
`NNC(=O)c1ccccc1S(=O)(=O)NCC1CC(c2ccc(Cl)cc2Cl)=NO1` (stereo not drawn): the Activity in the test on Pseudomonas aeruginosa [1] worked out at 50%. Further, the outcome with Pseudomonas aeruginosa [2] and with Pseudomonas aeruginosa [3] was inactive.
As to `NNC(=O)c1ccccc1S(=O)(=O)NCc1cc(-c2ccc(Br)cc2)no1`, the outcome with Pseudomonas aeruginosa [2] and in the test with Pseudomonas aeruginosa [3] was inactive.
Regarding `NNC(=O)c1ccccc1S(=O)(=O)NCC1CC(c2ccc(Cl)cc2)=NO1` (stereo not drawn), the outcome in the test with Pseudomonas aeruginosa [1], in the test on Pseudomonas aeruginosa [2] and with Pseudomonas aeruginosa [3] was inactive.
